We go through 10 compounds from PubChem BioAssay (NCI).

Structures are written as SMILES.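 Protocol summary: plate cells (96-well), add compound at 5 concentrations, incubate 48 h, interpolate endpoints linearly. At the GI50, growth is halved. TGI marks complete inhibition of growth.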

Among the test systems are 786-0 renal; HCT-116 colon; HOP-62 NSCLC; HOP-92 NSCLC; M14 melanoma; NCI-H522 lung; SF-268 CNS; SK-MEL-2 melanoma; SN12C renal; RXF 393 renal.
Holding throughout (assay): inhibition of tumour cell growth, NCI panel, 48 h

In the case of `Cc1ccccc1C(C#N)/C(=N/NC(=O)c1cc2ccccc2cc1O)C(=O)Nc1cccc(Cl)c1` (configuration not stated), the TGI with 786-0 renal is greater than 100 µM; in the assay on HCT-116 colon, greater than 100 µM; in the assay on HOP-62 NSCLC, greater than 100 µM; in the assay on HOP-92 NSCLC, greater than 100 µM; in the assay with M14 melanoma, greater than 100 µM; in the assay on NCI-H522 lung it was 78.3 µM. The TGI in the assay on SF-268 CNS was 90.3 µM; with SK-MEL-2 melanoma it was 76 µM; with SN12C renal, greater than 100 µM.

As to `OCCNc1nc(NCCO)nc(Nc2ccc(C3=NN(c4cc(Cl)cc(Cl)c4)C(c4ccc(Cl)cc4)C3)cc2)n1` (configuration not stated), the GI50 in the assay with 786-0 renal was 1.64 µM; in the assay with HCT-116 colon it was 1.59 µM; with HOP-92 NSCLC it was 2.04 µM; in the assay on M14 melanoma, 1.69 µM; in the assay on NCI-H522 lung, 2.03 µM; in the assay on RXF 393 renal, 1.44 µM. The GI50 is 1.86 µM in the assay on SF-268 CNS, 2.13 µM with SK-MEL-2 melanoma and 1.82 µM with SN12C renal. The TGI in the assay with 786-0 renal is 3.28 µM; in the assay on HCT-116 colon it was 3.05 µM; in the assay on HOP-92 NSCLC it was 4.42 µM; in the assay on M14 melanoma, 3.23 µM; in the assay on NCI-H522 lung, 4.66 µM; with RXF 393 renal, 2.91 µM. Moreover, the results for the TGI in the assay on SF-268 CNS, in the assay with SK-MEL-2 melanoma and in the assay with SN12C renal were 3.79 µM, 4.57 µM and 3.47 µM, respectively.

`CC(C)=CC(=O)Cc1nc2ccccc2[nH]c1=O`: the TGI was greater than 100 µM in the assay on 786-0 renal; greater than 100 µM in the assay on HCT-116 colon; greater than 100 µM in the assay on HOP-62 NSCLC; 68 µM in the assay with HOP-92 NSCLC; greater than 100 µM with M14 melanoma; 79.2 µM in the assay with RXF 393 renal. For the same compound, the TGI in the assay on SF-268 CNS, in the assay on SK-MEL-2 melanoma and in the assay on SN12C renal was greater than 100 µM each time.

Consider `CN1C(c2ccccc2)CC(=Nc2ccccc2)CC1c1ccccc1` (configuration not stated), for which the TGI worked out at 27.7 µM with 786-0 renal; 16.4 µM in the assay with HCT-116 colon; 34.6 µM in the assay with HOP-62 NSCLC; 22 µM in the assay with HOP-92 NSCLC; 27.9 µM in the assay with M14 melanoma; 17.4 µM with NCI-H522 lung. The results for the TGI in the assay with RXF 393 renal and in the assay with SF-268 CNS were 31.4 µM and 28.7 µM, respectively.

Turning to `CCCCCCn1c(-c2ccc(C(=O)O/N=C(\N)c3ccc(OC)cc3)cc2)nc(-c2ccccc2)c1-c1ccccc1`, the GI50 in the assay with 786-0 renal is 0.276 µM; in the assay on HCT-116 colon, 1.4 µM; in the assay on HOP-62 NSCLC it was 1.9 µM; in the assay with HOP-92 NSCLC, 1.12 µM; in the assay on NCI-H522 lung, 1.74 µM; in the assay on RXF 393 renal, 1.62 µM. The GI50 in the assay with SK-MEL-2 melanoma is 2.93 µM; in the assay with SN12C renal, 1.62 µM. For the same compound, the TGI was 0.833 µM in the assay on 786-0 renal; 2.89 µM in the assay on HCT-116 colon; 4.66 µM in the assay with HOP-62 NSCLC; 2.61 µM with HOP-92 NSCLC; 3.72 µM with NCI-H522 lung; 3.17 µM in the assay with RXF 393 renal. Moreover, the TGI is 9.46 µM in the assay with SK-MEL-2 melanoma and 3.26 µM in the assay on SN12C renal.

Turning to `C=C1C(=O)O[C@H]2[C@H]1CC/C(COC(=O)NCCc1ccc(OC)cc1)=C\CC[C@@]1(C)O[C@@H]21`, the GI50 is 1.76 µM with 786-0 renal; 1.34 µM with HCT-116 colon; 12.2 µM in the assay on HOP-62 NSCLC; 1.99 µM in the assay on HOP-92 NSCLC; 1.98 µM in the assay on M14 melanoma; 1.82 µM in the assay on NCI-H522 lung. The GI50 in the assay with RXF 393 renal is 1.55 µM; in the assay with SF-268 CNS, 10.6 µM; with SK-MEL-2 melanoma, 8.97 µM. Besides, the TGI in the assay on 786-0 renal is 4.22 µM; with HCT-116 colon, 2.84 µM; with HOP-62 NSCLC it was 27.1 µM; with HOP-92 NSCLC it was 6.19 µM; with M14 melanoma it was 4.78 µM; with NCI-H522 lung, 3.93 µM. In addition, the TGI with RXF 393 renal worked out at 3.11 µM; in the assay with SF-268 CNS, 23.3 µM; in the assay with SK-MEL-2 melanoma, 21.9 µM.

In the case of `COc1ccc(NC2=C(Sc3nc(C)cc(C)n3)C(=O)N(Cc3ccccc3)C2=O)cc1Cl`, the GI50 with 786-0 renal is 49.2 µM; with HCT-116 colon it was 39 µM; with HOP-62 NSCLC, 84.6 µM; in the assay on HOP-92 NSCLC it was 29.4 µM; in the assay with M14 melanoma it was greater than 160 µM; with NCI-H522 lung it was greater than 160 µM. Moreover, the GI50 is 29 µM in the assay on RXF 393 renal, greater than 160 µM in the assay on SF-268 CNS and 138 µM in the assay on SK-MEL-2 melanoma. For the same compound, the TGI in the assay with 786-0 renal, in the assay on HCT-116 colon, with HOP-62 NSCLC, in the assay with HOP-92 NSCLC, in the assay with M14 melanoma and in the assay on NCI-H522 lung was greater than 160 µM in each case. The TGI is 136 µM with RXF 393 renal, greater than 160 µM in the assay with SF-268 CNS and greater than 160 µM in the assay on SK-MEL-2 melanoma.

Turning to `CCOC(=O)c1cc2c(cc1Cl)SC(N(c1ccc(F)cc1)S(=O)(=O)c1ccc(OC)cc1)=NS2(=O)=O`, the GI50 was 24.4 µM in the assay with 786-0 renal; 17.1 µM in the assay with HCT-116 colon; 35.1 µM with HOP-62 NSCLC; 4.81 µM in the assay with HOP-92 NSCLC; 19.5 µM in the assay with M14 melanoma; 13.5 µM with NCI-H522 lung. In addition, the results for the GI50 in the assay on SF-268 CNS, with SK-MEL-2 melanoma and in the assay on SN12C renal were 14.5 µM, 12.4 µM and 19.3 µM, respectively. In addition, the TGI in the assay with 786-0 renal is 54.1 µM; in the assay with HCT-116 colon it was 32 µM; with HOP-62 NSCLC it was greater than 100 µM; with HOP-92 NSCLC, 19.2 µM; in the assay with M14 melanoma, 49.1 µM; in the assay with NCI-H522 lung, 29.9 µM. Besides, the TGI with SF-268 CNS was 31.4 µM; in the assay with SK-MEL-2 melanoma, 35.1 µM; in the assay with SN12C renal it was 50 µM.

Turning to `CC1(C)CCSC(/C=C/c2ccccc2)=N1`, the TGI with 786-0 renal was determined as 25.6 µM; in the assay on HCT-116 colon it was 26.7 µM; in the assay on HOP-62 NSCLC it was 32.8 µM; with HOP-92 NSCLC, 35.9 µM; in the assay on M14 melanoma, 27 µM; in the assay with NCI-H522 lung, 39.8 µM. Besides, the values for the TGI in the assay on RXF 393 renal, in the assay with SF-268 CNS and with SK-MEL-2 melanoma were 47.7 µM, 80.3 µM and 28.8 µM, respectively.

Regarding `COc1ccc2[nH]c3c(cnn4cnnc34)c2c1`, the TGI in the assay with 786-0 renal, in the assay on HOP-62 NSCLC, with HOP-92 NSCLC, in the assay with M14 melanoma, in the assay with NCI-H522 lung and in the assay on RXF 393 renal was greater than 100 µM throughout. For the same compound, the TGI in the assay with SF-268 CNS, in the assay with SK-MEL-2 melanoma and in the assay with SN12C renal was greater than 100 µM throughout.
